{
  "source": "patent US20050075371A1",
  "about": "“Methods and compositions for the oral administration of prodrugs of proton pump inhibitors” (ALLERGAN, INC., priority 2003, published 2005)",
  "key": {"[1]": {"test_system": "Caco-2 cells", "assay": "Membrane permeability (Papp) across Caco-2 cell monolayer, apical to basolateral", "type": "in vitro ADME", "settings": "Caco-2, apical to basolateral, 10 μM, 37° C.", "method": "Determination of membrane permeability in all examples described herein was accomplished by the following procedure. This procedure is also used to determine whether a given prodrug falls within the scope of those claims given herein which relate to membrane permeability.\nCaco-2 cells were seeded on Costar™ 12 mm diameter, 0.4 μm pore size transwell filters, and were cultured at 37° C., 5% CO2 in a humidified tissue culture chamber.\nDMEM was equilibrated as a transport buffer in 37° C. water bath an hour before experiment. The cells were then equilibrated in transport buffer for 1 hr at 37° C.\nDosing solution (10 μM) was prepared by adding a 20 μL aliquot of a 10 mM stock solution of the prodrug to 20 mL of transport buffer.\nTransport across Caco-2 cell monolayer was measured at 37° C., in the apical to basolateral direction (n=3).\nTransport buffer was removed from both apical and basolateral compartment of filters. Dosing solution (0.2 mL) was added to the apical compartment of the cell layers on transwell filters, and 0.8 ml fresh pre-warmed transport buffer was added to basolateral compartment. Timing was started for transport, and at 5, 20, and 60 min after transport started, sample fluid (400 μL) was collected from the basolateral compartment. Fresh transport buffer (400 μL) was added back to the basolateral compartment, and the fluid was thoroughly mixed.\nTransport samples, dosing solution, and standards(100 μL) each were mixed with 100 μl of a 500 ng/ml internal standard (Lansoprazole-D) for LC-MS/MS analysis, and part of each sample (100 μL) was vortexed and transferred into glass LC-MS/MS vials for analysis.\nThe apparent permeability coefficient (Papp, cm/sec), otherwise known herein as the membrane permeability, is determined from the following relationship: Papp=J/(ACo) where J (pmol/min) is the transport rate, meaning the rate of prodrug movement through the cell layer, A (cm^2) is the filter surface area, and Co (μM) is the initial dosing concentration.\nThe transport rate J, is calculated as the slope of the linear regression fit for the transport amount over time data using Microsoft Excel® 97 SR-2 (Microsoft Corp. Redmond, Wash.).\nLucifer yellow (LY) was used as a paracellular permeability reference standard to determine integrity of cell layers used in the experiments. LY transport in the apical to basolateral direction was carried out in the same manner as described above. Fluorescence level in basolateral fluid sampled at 5, 20, and 60 min post dose was determined using Fluostar Galaxy (BMG Labtechnologies, Durham, N.C.) at excitation/emission wavelengths of 485/520 nm. A standard curve covering the range from 0.002 to 0.5 mg/mL is constructed to quantify the amount of LY in the transport sample to calculate permeability coefficient (Papp)."}, "[2]": {"assay": "Stability profile in buffered aqueous solutions", "type": "physicochemical", "settings": "25° C."}, "[3]": {"assay": "Solubility profile in buffered aqueous solutions", "type": "physicochemical", "settings": "25° C.", "from_the_text": "While not intending to be bound in any way by theory, it is believed that this improvement in solubility is due to the deprotonation of a sufficient quantity of the acid."}, "[4]": {"assay": "Degradation in simulated gastric fluid", "type": "physicochemical", "settings": "simulated gastric fluid (USP, pepsin); pH 1.2", "method": "Simulated gastric fluid was prepared as specified by USP (http://www.uspnf.com/uspnf/usp26nf21/default.htm, Reagents>Solutions>Test Solutions>Gastric Fluid, Simulated). To make 200 mL of simulated gastric fluid, 0.4 g of sodium chloride and 0.64 g of purified pepsin, with an activity of 800 to 2500 units per mg of protein, was dissolved in 1.4 mL of hydrochloric acid and sufficient water. The solution was adjusted to the appropriate pH with hydrochloric acid.\nThe pH dependence of the half-life of compound 1 in the simulated gastric fluid is depicted in Table 4A."}, "[5]": {"assay": "Systemic omeprazole after enteric-coated or regular capsules in monkeys", "type": "in vivo", "settings": "Monkey, oral capsule of sodium salt of compound 1", "method": "(§1) The bioavailability of compound 1 in enterically coated and non enterically coated dosage forms was investigated for dogs and monkeys. Regular and enteric-coated size 3 HPMC capsules (Capsugel, Morris Plains, N.J.) containing compound 1 were prepared by placing the appropriate amount of the sodium salt of compound 1 in the capsule. The enteric-coating material was prepared by dissolving cellulose acetate phthalate in a mixture of isopropyl alcohol and dichloromethane. The entire capsule was dipped in the enteric-coating material, and the isopropyl alcohol and dichloromethane were allowed to evaporate. The dosage forms were administered to the animals and the concentration of the omeprazole in the blood was determined as described in the oral bioavailability determination of Example 2. The maximum concentration of omeprazole (Cmax) and the total area under the curve (AUC) for the animals receiving both enterically coated and non-enterically coated oral dosage forms is presented in Table 4B. In both dogs and monkeys, both the Cmax and the AUC are higher for the non-enterically coated dosage form."}, "[6]": {"assay": "Systemic omeprazole after enteric-coated or regular capsules in dogs", "type": "in vivo", "settings": "Dog, oral capsule of sodium salt of compound 1", "method": "as §1"}, "[7]": {"assay": "Systemic half-life after oral or intravenous administration in dogs", "type": "in vivo, dogs (beagle)", "method": "(§2) Blood concentrations of the compounds omeprazole, lansoprazole, pantoprazole, rabeprazole, and test compounds were quantified using an achiral liquid chromatography tandem mass spectrometry method (LC-MS/MS). Systemic pharmacokinetic parameters were determined for omeprazole or lansoprazole using non-compartmental analysis in Watson® version 6.3, available from InnaPhase Corporation, Philadelphia, Pa."}, "[8]": {"assay": "Hygroscopicity on storage", "type": "physicochemical", "settings": "14 days of storage at 25° C. at 75% relative humidity", "method": "The physicochemical properties of compound 1 were analyzed."}, "[9]": {"assay": "Systemic half-life after oral or intravenous administration in rats", "type": "in vivo, rats (Sprague-Dawley)", "settings": "for Systemic omeprazole half-life: rats", "method": "as §2"}, "[10]": {"assay": "Oral administration of solid dosage form to a person suffering from heartburn", "type": "in vivo", "settings": "40 mg compound 1, 50% as sodium salt, oral daily", "method": "A solid dosage form comprising 40 mg of compound 1, having 50% of the prodrug in the form of the sodium salt, is orally administered daily to a person suffering from heartburn. Relief of pain begins to occur within about 1 day, and continues as long as the person takes the dosage form."}, "[11]": {"settings": "pH 3, Citric Acid (0.1 M)/Na2HPO4 (0.2 M)"}, "[12]": {"settings": "pH 5, Citric Acid (0.1 M)/Na2HPO4 (0.2 M)"}, "[13]": {"settings": "pH 7, sodium phosphate (0.1-0.2 M)"}, "[14]": {"settings": "pH 7.4, sodium phosphate (0.1-0.2 M)"}, "[15]": {"settings": "pH 9, sodium phosphate (0.1-0.2 M)"}, "[16]": {"settings": "pH 10, sodium phosphate (0.1-0.2 M)"}, "[17]": {"settings": "intravenous, equivalent omeprazole dose 1 mg/kg"}, "[18]": {"settings": "oral, equivalent omeprazole dose 10 mg/kg"}},
  "data": [
    {"smiles": "COc1ccc2c(c1)nc([S+]([O-])Cc1ncc(C)c(OC)c1C)n2S(=O)(=O)c1ccc(OCC(=O)O)cc1", "note": "(stereo not drawn) [Compound 1]", "values": [
      {"measurement": "Permeability", "setting": "[1]", "value": 0.12, "unit": "×10⁻⁶ cm/s"},
      {"measurement": "Degradation Rate Constant (k)", "setting": "[2]; pH 1, 0.1 M HCl", "value": 0.194, "unit": "h⁻¹"},
      {"measurement": "Half-life (t1/2)", "setting": "[2]; pH 1, 0.1 M HCl", "value": 3.6, "unit": "h"},
      {"measurement": "Shelf life (t90%)", "setting": "[2]; pH 1, 0.1 M HCl", "value": 0.5, "unit": "h"},
      {"measurement": "Degradation Rate Constant (k)", "setting": "[2]; [11]", "value": 0.009, "unit": "h⁻¹"},
      {"measurement": "Half-life (t1/2)", "setting": "[2]; [11]", "value": 78.0, "unit": "h"},
      {"measurement": "Shelf life (t90%)", "setting": "[2]; [11]", "value": 11.9, "unit": "h"},
      {"measurement": "Degradation Rate Constant (k)", "setting": "[2]; [12]", "value": 0.008, "unit": "h⁻¹"},
      {"measurement": "Half-life (t1/2)", "setting": "[2]; [12]", "value": 89.2, "unit": "h"},
      {"measurement": "Shelf life (t90%)", "setting": "[2]; [12]", "value": 13.6, "unit": "h"},
      {"measurement": "Degradation Rate Constant (k)", "setting": "[2]; [13]", "value": 0.002, "unit": "h⁻¹"},
      {"measurement": "Half-life (t1/2)", "setting": "[2]; [13]", "value": 286.8, "unit": "h"},
      {"measurement": "Shelf life (t90%)", "setting": "[2]; [13]", "value": 43.6, "unit": "h"},
      {"measurement": "Degradation Rate Constant (k)", "setting": "[2]; [14]", "value": 0.002, "unit": "h⁻¹"},
      {"measurement": "Half-life (t1/2)", "setting": "[2]; [14]", "value": 291.2, "unit": "h"},
      {"measurement": "Shelf life (t90%)", "setting": "[2]; [14]", "value": 44.3, "unit": "h"},
      {"measurement": "Degradation Rate Constant (k)", "setting": "[2]; [15]", "value": 0.030, "unit": "h⁻¹"},
      {"measurement": "Half-life (t1/2)", "setting": "[2]; [15]", "value": 23.0, "unit": "h"},
      {"measurement": "Shelf life (t90%)", "setting": "[2]; [15]", "value": 3.5, "unit": "h"},
      {"measurement": "Degradation Rate Constant (k)", "setting": "[2]; [16]", "value": 0.298, "unit": "h⁻¹"},
      {"measurement": "Half-life (t1/2)", "setting": "[2]; [16]", "value": 2.3, "unit": "h"},
      {"measurement": "Shelf life (t90%)", "setting": "[2]; [16]", "value": 0.4, "unit": "h"},
      {"measurement": "Solubility", "setting": "[3]; pH 1, 0.1 M HCl", "value": 1.8, "unit": "mg/mL"},
      {"measurement": "Solubility", "setting": "[3]; [11]", "value": 0.4, "unit": "mg/mL"},
      {"measurement": "Solubility", "setting": "[3]; [12]", "value": ">50", "unit": "mg/mL"},
      {"measurement": "Solubility", "setting": "[3]; [13]", "value": ">50", "unit": "mg/mL"},
      {"measurement": "Solubility", "setting": "[3]; [15]", "value": ">50", "unit": "mg/mL"},
      {"measurement": "Half-life in Simulated Gastric Fluid", "setting": "[4]", "value": 3, "unit": "h"},
      {"measurement": "AUC Omeprazole/Dose", "setting": "[5]; Enteric Coating", "value": "18.9 ± 7.9", "unit": "ng·h/mL/mg/kg"},
      {"measurement": "Cmax Omeprazole/Dose", "setting": "[5]; Enteric Coating", "value": "6.09 ± 1.04", "unit": "ng/mL/mg/kg"},
      {"measurement": "AUC Omeprazole/Dose", "setting": "[5]; Regular Capsule", "value": "19.7 ± 8.8", "unit": "ng·h/mL/mg/kg"},
      {"measurement": "Cmax Omeprazole/Dose", "setting": "[5]; Regular Capsule", "value": "14.0 ± 17.1", "unit": "ng/mL/mg/kg"},
      {"measurement": "AUC Omeprazole/Dose", "setting": "[6]; Enteric Coating", "value": "82.2 ± 18.4", "unit": "ng·h/mL/mg/kg"},
      {"measurement": "Cmax Omeprazole/Dose", "setting": "[6]; Enteric Coating", "value": "22.5 ± 7.3", "unit": "ng/mL/mg/kg"},
      {"measurement": "AUC Omeprazole/Dose", "setting": "[6]; Regular Capsule", "value": "91.3 ± 32.9", "unit": "ng·h/mL/mg/kg"},
      {"measurement": "Cmax Omeprazole/Dose", "setting": "[6]; Regular Capsule", "value": "29.2 ± 11.8", "unit": "ng/mL/mg/kg"},
      {"measurement": "Systemic omeprazole half-life", "setting": "[7]; [17]", "value": 1.0, "unit": "h"},
      {"measurement": "Dog T1/2 PPI", "setting": "[7]; oral solution, systemic half-life of the proton pump inhibitor, unit inferred", "value": 2.08, "unit": "h"},
      {"measurement": "t1/2 (systemic half-life in dogs after oral administration)", "setting": "[7]; oral, Table 2D", "value": 2.4, "unit": "h"},
      {"measurement": "Systemic omeprazole half-life", "setting": "[7]; [18]", "value": 2.4, "unit": "h"},
      {"measurement": "weight gain", "setting": "[8]", "value": 9, "unit": "%"},
      {"measurement": "Prodrug in the bloodstream 5 minutes after intravenous administration", "setting": "[9]; rats (Table 2A study), intravenous, 5 minutes", "value": "not detected"},
      {"measurement": "Systemic omeprazole half-life", "setting": "[9]; [17]", "value": 0.18, "unit": "h"},
      {"measurement": "Systemic omeprazole half-life", "setting": "[9]; [18]", "value": 1.7, "unit": "h"},
      {"measurement": "Relief of pain begins to occur", "setting": "[10]", "value": "≤ 1", "unit": "days"}
    ]}
  ]
}
